Paper PMC5007552, “The hVps34‐SGK3 pathway alleviates sustained PI3K/Akt inhibition by stimulating mTORC1 and tumour growth” (The EMBO Journal, 2016)

What was measured:
[1] = Plasma concentration at end of xenograft study; assay type: in vivo, mice; conditions: 2–3 h after last dose on day 24, MK-2206 100 mg/kg, 14h 25 mg/kg p.o.
Experimental: (§1) Figure 8 Dual treatment with Akt and SGK inhibitors reduces tumour growth in BT‐474 xenograft model • BT‐474 cells were treated for the indicated times with 0.3 μM MK‐2206. The cell lysates were analysed by immunoblot using the indicated antibodies. • BT‐474c cells were treated with inhibitors as indicated either as monotherapy or in combination and cell confluency measured on the Incucyte ZOOM every 4 h for up to 4 weeks. • BT‐474 cells were injected subcutaneously into athymic Foxn1 ^nu nude mice. […] The tumour volume was measured twice a week. Tumour growth is represented as the fold change mean ± SEM. • All mice were weighed at the end of the treatments. […] Results are presented as a mean ± SD from three different samples. • Tumours were harvested at the end of the experiment, 4 h after the last dosage and subjected to immunohistochemical analysis using cleaved caspase‐3 antibody (clCasp3). Apoptotic cells were counted in 25 fields per condition (left panel) and quantified as clCasp3‐positive cells/field (right panel). The results are presented as mean ± SD number of cleaved caspase‐3 positive cells. Representative images are shown. Scale bar, 100 μm. • Tumours were harvested at the end of the experiment, 4 h after the last dosage and subjected to immunohistochemical analysis with the indicated antibodies. Representative images are shown. Scale bar, 100 μm. • Tumours were obtained the same way as in (G) and subjected to immunoblot analysis with the indicated antibodies. Six different tumours were analysed from each treatment group and each line represents one tumour sample. TEXT PRINTED IN THE PICTURE: (E) MK-2206: plasma conc.

[2] = test system: BT-474 human breast xenograft; assay: BT-474 xenograft tumour growth in nude mice; assay type: in vivo; conditions: 24 days, monotherapy
Experimental: (§2) Figure 8 Dual treatment with Akt and SGK inhibitors reduces tumour growth in BT‐474 xenograft model • BT‐474 cells were treated for the indicated times with 0.3 μM MK‐2206. The cell lysates were analysed by immunoblot using the indicated antibodies. • BT‐474c cells were treated with inhibitors as indicated either as monotherapy or in combination and cell confluency measured on the Incucyte ZOOM every 4 h for up to 4 weeks. • BT‐474 cells were injected subcutaneously into athymic Foxn1 ^nu nude mice. […] The tumour volume was measured twice a week. Tumour growth is represented as the fold change mean ± SEM. • All mice were weighed at the end of the treatments. […] Apoptotic cells were counted in 25 fields per condition (left panel) and quantified as clCasp3‐positive cells/field (right panel). […] Six different tumours were analysed from each treatment group and each line represents one tumour sample. […]
(§3) Experiments involving mice were in accordance with Institutional Guidelines of Memorial Sloan Kettering Cancer Center (Protocol number 12‐10‐019). […] When tumours reached a volume of ~150 mm^3, mice were randomised, treated, and tumours were measured twice a week. Tumour volume was determined using the following formula: (length × width^2) ÷ 2. […]

BT-474 xenograft tumours = assay: Immunohistochemical and immunoblot analysis of signalling markers in xenograft tumours; assay type: in vivo, mice; conditions: end of treatment, IHC and immunoblot
Experimental: as §2, §3

BT-474c cells = assay: Cell growth in vitro (confluency, Incucyte ZOOM); assay type: cell-based, human
Experimental: as §1
SGK3 (upper panel) and S6K1 (middle panel) were immunoprecipitated and subjected to in vitro kinase assay by measuring phosphorylation of the Crosstide substrate peptide in the presence of 0.1 mM [γ‐^32P]ATP in a 30 min 30°C reaction. Kinase reactions are presented as means ± SD for triplicate reaction. Immunoprecipitates (IP) were also analysed by immunoblot with the indicated antibodies. […]

[3] = test system: NDRG1 phosphorylation in ZR-75-1 cells; assay: Immunoblot of NDRG1 (Thr346) phosphorylation in breast cancer cells; assay type: cell-based, human; conditions: 1 μM, 1 h; ZR-75-1, CAMA-1 (and T47D for PI3K inhibitors)
Experimental: Cell lysates were subjected to immunoblot analysis with the indicated antibodies. • ZR‐75‐1 cells cultured in serum in the absence of Akt inhibitor were treated for 1 h with the indicated concentrations of VPS34‐IN1. […] One hour prior to lysis, the cells were incubated in the presence or absence of 1 μM VPS34‐IN1. SGK3 was immunoprecipitated from lysates and subjected to in vitro kinase assay by measuring phosphorylation of the Crosstide substrate peptide in the presence of 0.1 mM [γ‐^32P]ATP in a 30 min 30°C reaction (upper panel). Kinase reactions are presented as means ± SD for triplicate reaction. Immunoprecipitates (IP) and lysates were analysed by immunoblot with the indicated antibodies. […] SGK3 was immunoprecipitated from the lysates and subjected to in vitro kinase assay as in (C). Kinase reactions are presented as means ± SD for triplicate reaction. Immunoprecipitates (IP) and lysates (lower panel) were also subjected to immunoblot analysis with the indicated antibodies. • ZR‐75‐1 cells were cultured in the absence or presence of 1 μM MK‐2206 for 5 days. Cells were then treated in the absence or presence of 0.1 μM AZD8055 or 0.1 μM rapamycin for 1 h. SGK3 was immunoprecipitated and subjected to in vitro kinase assay as in (C). Kinase reactions are presented as means ± SD for triplicate reaction. The immunoprecipitates (IP) and lysates were analysed with the indicated antibodies.
One hour prior to lysis, the cells were incubated in the presence of absence of 0.3 μM SAR405. SGK3 was immunoprecipitated from lysates and subjected to in vitro kinase assay by measuring phosphorylation of the Crosstide substrate peptide in the presence of 0.1 mM [γ‐^32P]ATP in a 30 min 30°C reaction (upper panel). Kinase reactions are presented as means ± SD for triplicate reaction. Immunoprecipitates (IP) and lysates were also analysed by immunoblot with the indicated antibodies.
The result for each kinase is presented as a mean kinase activity of the reaction taken in triplicate relative to a control reaction where the inhibitors were omitted. […] SGK3 was immunoprecipitated from cell lysates and subjected to in vitro kinase assay by measuring phosphorylation of the Crosstide substrate peptide in the presence of 0.1 mM [γ‐^32P]ATP in a 30 min 30°C reaction (upper panel). Kinase reactions are presented as means ± SD for triplicate reaction.
HEK293 cells were purchased from the American Tissue Culture Collection (ATCC). Cells were cultured in RPMI or DMEM media supplemented with 10% (v/v) foetal bovine serum, 2 mM L‐glutamine, 100 U/ml penicillin and 0.1 mg/ml streptomycin. Inhibitor treatments were carried out as described in figure legends. During 5 days inhibitor treatments, the media was changed after 72‐h intervals. The cells were lysed in buffer containing 50 mM Tris–HCl (pH 7.5), 150 mM NaCl, 1 mM EDTA, 1 mM EGTA, 1 mM sodium orthovanadate, 10 mM sodium glycerophosphate, 10 mM sodium pyrophosphate, 0.27 M sucrose, 0.1% (v/v) 2‐mercaptoethanol, 1 mM benzamidine and 0.1 mM PMSF. Lysates were clarified by centrifugation at 16,000 g for 10 min at 4°C. Protein concentration was calculated using Bradford assay (Thermo Scientific). Immunoblotting and immunoprecipitation were performed using standard procedures. The signal was developed using ECL Western Blotting Detection Kit (Amersham) on Amersham Hyperfilm ECL film (Amersham).

Row | plasma conc. ([1]; dual treatment) | plasma conc. ([1]; mono treatment) | SMILES | anti-tumour effect ([2]; 25 mg/kg p.o. 5 times/week) | phosphorylation markers in tumour samples (Akt 473, PRAS40, NDRG1, S6) (BT-474 xenograft tumours) | cell growth when 14h is combined with Akt inhibitor (BT-474c cells; 3 μM 14h with 0.3 μM AZD5363 or MK-2206, from beginning or 12 days after) | anti-proliferative effect alone (BT-474c cells; 3 μM, 5–6 days) | inhibition of in vivo growth of BT-474 ([2]; 100 mg/kg p.o. 5 times/week) | phosphorylation of PRAS40 (Thr246) and NDRG1 (Thr346) [3] | time to reach confluency (BT-474c cells; 0.3 μM Akt inhibitor, long-term growth assay)
1 | 1.39 ± 0.36 µM | 1.77 ± 0.54 µM | Nc1n[nH]c2nc(-c3ccc(NS(=O)(=O)c4cc(Cl)ccc4Cl)cc3)cnc12 [14h] | No anti‐tumour effects | no major effect | further reduction in cell growth | little anti‐proliferative effect |  |  | 
2 | 2.69 ± 0.25 µM | 2.69 ± 0.53 µM | NC1(c2ccc(-c3nc4ccn5c(=O)[nH]nc5c4cc3-c3ccccc3)cc2)CCC1 [MK-2206] |  | ablated Akt 473 and PRAS40 phosphorylation |  |  | ~ 20% | inhibited | ~20 days
